# Reference: US6451850B1, “Bio-chemical germanium complexes with high therapeutic efficiency and wide application spectrum” (priority 2001, dated 2002)
# Conditions: Table 4
# Protocol: Water solutions or suspensions of the complexes under investigation have been injected intraperitoneally 30÷60 min. before beginning of the experiment. Animals from the control group got equal amounts of physiological salt solution. High altitude hypoxia was made in special air tight chambers, in which a lift of the animals up to the altitude 10,000 m has been imitated by pumping out of air. A criterion of validity for the complexes was increase of mice life length and survivability of these.
# Interferon inducing activity of the complexes has been studied with various methods, including the study with native leukocytes of human donor blood.
# Antiinflammatory effect has been studied for animals according to the method by Ju. Strel'nikov. Experiments have been carried out with white mice of mass 20 g. Aseptic inflammation was caused by injection of 0.1 ml of 2.5% formalin solution into thigh thickness of an animal's paw. A compound under investigation was injected into the stomach in the dose equimolecular to 20 mg/kg of indometacin two hours before the injection of formalin. Distinction of the edema was estimated by increase of a mass of inflamed and uninflammed paws in experimental groups of animals compared to control ones. […] Simultaneously antiinflammatory activity of indometacin was studied for comparison.
row,Compound,Expansion of Effect Spectrum for the Complex Medicament
1,NC12CC3CC(CC(C3)C1)C2.[CH3][Ge]12[O]CCN(CC(=O)[O]1)CC(=O)[O]2,- . -
2,Cc1cn([C@H]2C[C@H](N=[N+]=[N-])[C@@H](CO)O2)c(=O)[nH]c1=O.[CH3][Ge]12[O]CCN(CC(=O)[O]1)CC(=O)[O]2,- . -
3,"[CH3][Ge]12[O]CCN(CC(=O)[O]1)CC(=O)[O]2.c1ccc(Cc2nc3ccccc3[nH]2)cc1 [Dibasolum OGC (R = CH3, R1R2 = R5R6 = O)]",- . -
4,[OH][Ge]12[O]CCN(CC[O]1)CC[O]2.c1ccc(Cc2nc3ccccc3[nH]2)cc1 [Dibasolum OGC (R = OH)],- . -
5,[SH][Ge]12[O]CCN(CC[O]1)CC[O]2.c1ccc(Cc2nc3ccccc3[nH]2)cc1 [Dibasolum OGC (R = SH)],- . -

# Same assay, conditions: Table 5
row,Compound,Expansion of Effect Spectrum for the Complex Medicament
1,CN(C)CCCN1c2ccccc2Sc2ccc(Cl)cc21.O=C1CN2CC[O][Ge]([C]34CC5CC(CC(C5)C3)C4)([O]1)[O]C(=O)C2,- . -
2,CN(C)CCC=C1c2ccccc2Sc2ccc(Cl)cc21.C[CH2][Ge]12[O]CCN(CC(=O)[O]1)CC(=O)[O]2,- . -
3,O=C1CN2CC[O][Ge]([C]34CC5CC(CC(C5)C3)C4)([O]1)[O]C(=O)C2.O=C1NC(=O)C(c2ccccc2)(c2ccccc2)N1,- . -
4,CCC1(c2ccccc2)C(=O)NCNC1=O.O=C1CN2CC[O][Ge]([C]34CC5CC(CC(C5)C3)C4)([O]1)[O]C(=O)C2,- . -
5,N[C@@H](Cc1ccc(O)c(O)c1)C(=O)O.O=C1CN2CC[O][Ge]([C]34CC5CC(CC(C5)C3)C4)([O]1)[O]C(=O)C2,- . -
6,CN1CCN(CCCN2c3ccccc3Sc3ccc(Cl)cc32)CC1.[CH3][Ge]12[O]CCN(CC(=O)[O]1)CC(=O)[O]2,- . -
7,O=C1CN=C(c2ccccc2Cl)c2cc(Br)ccc2N1.[CH3][Ge]12[O]C(=O)CN(CC(=O)[O]1)CC(=O)[O]2,- . -
8,O=C1CN2CC[O][Ge]([C]34CC5CC(CC(C5)C3)C4)([O]CC2)[O]1.O=C1CN=C(c2ccccc2Cl)c2cc(Br)ccc2N1,- . -
9,CCC1(c2ccccc2)C(=O)NC(=O)NC1=O.O=C1CN2CC[O][Ge]([C]34CC5CC(CC(C5)C3)C4)([O]1)[O]C(=O)C2,- . -
10,CN(C)CCCN1c2ccccc2Sc2ccc(Cl)cc21.[OH][Ge]12[O]CCN(CC[O]1)CC[O]2 [Aminazinum OGC (R = OH)],- . -
11,CN(C)CCCN1c2ccccc2Sc2ccc(Cl)cc21.[SH][Ge]12[O]CCN(CC[O]1)CC[O]2 [Aminazinum OGC (R = SH)],- . -
12,CN(C)CCC=C1c2ccccc2Sc2ccc(Cl)cc21.[OH][Ge]12[O]CCN(CC[O]1)CC[O]2 [Chlorprotexenum OGC (R = OH)],- . -
13,CN(C)CCC=C1c2ccccc2Sc2ccc(Cl)cc21.[SH][Ge]12[O]CCN(CC[O]1)CC[O]2 [Chlorprotexenum OGC (R = SH)],- . -
14,CN1C(=O)CN=C(c2ccccc2)c2cc(Cl)ccc21.[OH][Ge]12[O]CCN(CC[O]1)CC[O]2 [Diazepam OGC (R = OH)],- . -
15,CN1C(=O)CN=C(c2ccccc2)c2cc(Cl)ccc21.[SH][Ge]12[O]CCN(CC[O]1)CC[O]2 [Diazepam OGC (R = SH)],- . -
16,O=C1NC(=O)C(c2ccccc2)(c2ccccc2)N1.[OH][Ge]12[O]CCN(CC[O]1)CC[O]2 [Dipheninum OGC (R = OH)],- . -
17,CCC1(c2ccccc2)C(=O)NCNC1=O.[OH][Ge]12[O]CCN(CC[O]1)CC[O]2 [Hexamidinum OGC (R = OH)],- . -
